Test results: patent publication US8173695B2, “Kappa selective opioid receptor antagonist” (Eli Lilly and Company, priority 2008, dated 2012)

How the values were obtained:
Assay type in all cases: in vivo
[1] = target: T1, delta receptors (striatum) (Rattus norvegicus, UniProt P33533); assay: Opioid receptor occupancy (RO) in rat brain, tracer naltriben
T1 construct: from tissue; host or cells: striatum of living Sprague Dawley rats

[2] = system: Male Fischer F-344 rats; assay: Stress-induced hyperthermia (in rat); details: for stress-induced hyperthermia (T2−T1): in °C
[3] = Brain (striatum) exposure levels after oral dosing, LC/MS/MS; details: male, Sprague Dawley (Harlan), rat striatum
Procedure: Male Harlan Sprague Dawley rats are treated with the compound of Example 1A of the present invention using a 3% lactic acid/water oral formulation at doses of […], 0.3, 1, 3, 10 and 30 mg/kg. […] The increasing levels of kappa receptor occupancy are driven by roughly proportional increases in plasma and brain exposure of the compound of Example 1A of the present invention up to a dose of 30 mg/kg.
Exposure levels of the compound of Example 1A in the rat striatum following administration were determined in the same samples used to quantify the level of opioid receptor occupancy. Levels of Example 1A are detected by LC/MS/MS (API 4000, MDS Sciex) and quantified from a standard curve of Example 1A prepared in rat brain homogenate.

[4] = system: Male NIH-Swiss mice; assay: Mouse forced swim test; details: for immobility in mouse forced swim test, Mean: 60 min
Source text: This test evaluates the effect of test compound on mice mobility as a measure of antidepressant effect. The less immobility compared to vehicle, the more pronounced the antidepressant-like effect.
Male, NIH-Swiss mice (25-30 g) (Harlan Sprague-Dawley, Indianapolis, Ind., USA) are housed in a vivarium for at least one week prior to use with water and rodent chow freely available during this acclimation period. Animals are removed from the vivarium to the testing area in their home cages and allowed to adapt to the new environment for at least one hour before testing.
Mice are placed in clear plastic cylinders (diameter: 10 cm; height: 25 cm) filled with 6 cm of water (22-25° C.) for six minutes. The duration of immobility during the last four minutes of the six minutes test period is scored. A mouse is recorded as immobile when floating motionless or making only those movements necessary to keep its head above water.
The test compound is administered p.o. 1 hour prior to testing at 1.0 mg/kg, 3.0 mg/kg and 10.0 mg/kg, n of 8 per group in a vehicle of 5 ml of sterile water and 30 ml of diluted (10×) lactic acid. Imipramine is evaluated as a positive control, 15 mg/kg: p, 30 min. prior to testing n of 4.
A second study is carried out evaluating 1 and 3 mg/kg doses of the compound of Example 1A alone and in combination with 5 mg/kg of imipramine. Imipramine alone is evaluated at 5 and 15 mg/kg doses and a vehicle control is included in the study. For the combination studies, the compound of Example 1A is administered p.o. 30 minutes prior to administration of imipramine i.p. and the test initiated 30 minutes following imipramine administration. An n of 8 per group is evaluated for all groups. For the evaluations of the compound of Example 1A alone, testing is initiated 60 minutes following administration and testing of imipramine only treated animals is initiated 30 minutes following administration.

[5] = Study 1, 1, 3 and 10 mg/kg p.o.

T1 sequence (P33533 whole entry): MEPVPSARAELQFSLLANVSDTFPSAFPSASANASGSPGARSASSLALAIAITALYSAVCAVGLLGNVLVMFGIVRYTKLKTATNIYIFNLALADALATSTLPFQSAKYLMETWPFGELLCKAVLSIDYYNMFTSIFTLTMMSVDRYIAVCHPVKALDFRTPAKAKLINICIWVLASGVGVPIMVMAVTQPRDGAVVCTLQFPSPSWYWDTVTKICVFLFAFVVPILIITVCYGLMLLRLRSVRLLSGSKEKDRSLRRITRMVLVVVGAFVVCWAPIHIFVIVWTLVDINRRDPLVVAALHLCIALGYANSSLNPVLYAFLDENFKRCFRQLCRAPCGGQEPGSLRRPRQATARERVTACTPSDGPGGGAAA

ED50 ([1]; oral): > 30 mg/kg | delta receptor occupancy ([1]; oral doses up to 30 mg/kg): no significant occupancy | baseline core body temperature [2, 5]: not affected | baseline core body temperature ([2]; Study 2, 1, 3 and 10 mg/kg p.o. together with 1 mg/kg chlordiazepoxide): not affected | concentration at 5.5 h ([3]; 0.1 mg/kg, oral dose .1 mg/kg): 15.3 ng/g | concentration at 5.5 h ([3]; 0.3 mg/kg, oral dose .3 mg/kg): 7.23 ng/g | concentration at 5.5 h ([3]; oral dose 1 mg/kg): 19.6 ng/g | concentration at 5.5 h ([3]; oral dose 3 mg/kg): 39.2 ng/g | concentration at 5.5 h ([3]; oral dose 10 mg/kg): 171 ng/g | concentration at 5.5 h ([3]; oral dose 30 mg/kg): 266 ng/g
Structure (SMILES): Cc1cc(C)cc([C@@H]2CCCN2Cc2ccc(Oc3ccc(C(N)=O)cc3F)cc2)c1 (single isomer, unassigned) [Example 1A]
stress-induced hyperthermia (T2−T1) ([2]; Study 1, 1 mg/kg po, 60 min pretreatment, body temperature in degrees C.): 0.84±0.07 | stress-induced hyperthermia (T2−T1) ([2]; Study 1, 3 mg/kg po, 60 min pretreatment): 0.80±0.10 | stress-induced hyperthermia (T2−T1) ([2]; Study 1, 10 mg/kg po, 60 min pretreatment): 0.75±0.11 | reduction in stress-induced hyperthermia (T2−T1), in words [2, 5]: dose-dependent, but non-significant, reduction | stress-induced hyperthermia (T2−T1) ([2]; Study 2, 10 mg/kg Example 1A alone, po): 0.74±0.04 | reduction in stress-induced hyperthermia, in words ([2]; Study 2, together with 1 mg/kg chlordiazepoxide, significant reduction p<0.05): increases the efficacy of a sub-threshold dose of chlordiazepoxide | immobility in mouse forced swim test, Mean ([4]; Example 1A 1 mg/kg p.o.): 151.53 s | immobility in mouse forced swim test, Mean ([4]; Example 1A 3 mg/kg p.o.): 172.02 s | antidepressant-like activity (immobility), in words ([4]; first study, 10.0 mg/kg p.o. 1 hour prior to testing, p<0.05 versus vehicle, Dunnett's test): demonstrates antidepressant-like activity
